From patent publication US9346769B2, “Tetrazolones as inhibitors of fatty acid synthase” (Infinity Pharmaceuticals, Inc., priority 2010, dated 2016)

Target: T1, human FASN (Homo sapiens, UniProt P49327)
T1 construct: was purified from SKBR3 cells using procedures modified from those in Jayakumar et al; endogenous in cells; host or cells: SKBR3 human breast cancer cells (ATCC); Endogenous enzyme purified by ammonium sulfate precipitation and a mono Q column
Test: FASN NADPH Consumption Assay
Type: biochemical
Conditions: human FASN purified from SKBR3 cells; starred symbols
Method: Human FASN protein (SEQ ID NO. 1) was purified from SKBR3 cells using procedures modified from those in Jayakumar et al. PNAS 1995, 92:8695-8699. SKBR3 cells were obtained from ATCC and grown in DMEM high glucose medium supplemented with 10% FBS, 1 μg/mL bovine pancreas insulin, 100 U/mL penicillin and 100 µg/mL streptomycin. The confluent cells were trypsinized and washed three times with PBS buffer before frozen in liquid N2 and stored at −80° C. Frozen cells were thawed on ice and resuspended in lysis buffer (25 mM Tris-HCl, pH 7.0, 15 mM NaCl, 1 mM EDTA, and 1 mM DTT) with protease inhibitors. The cells were lysed by sonication, and the cell debris was removed by centrifugation at 20,000 rpm for 30 min. To the supernatant, neutralized saturated ammonium sulfate solution was added to a final concentration of 35%. The solution was left on ice for 1 hr, and the precipitated proteins were harvested by centrifugation at 20,000 rpm for 30 min. The proteins were redissolved in lysis buffer without NaCl and loaded on a mono Q column. Bound proteins were eluted with a linear gradient of NaCl in lysis buffer. Each fraction was analyzed by SDS-PAGE and FASN NADPH consumption assay. The fractions containing FASN were pooled and concentrated to 2-3 mg/mL. Glycerol was added to 20%, and the protein was frozen in liquid N2 and stored at −80° C.
All chemicals were purchased from Sigma (St. Louis, Mo.). The procedures of NADPH consumption assay were similar to those described in Cox et al., PNAS 1983, 80:4233-4237. On a 96-well polypropylene microplate, dilution series (typical concentrations 60 nM-1.0 mM) of test compounds were prepared in DMSO, of which 4.0 μL each was transferred to a black polystyrene assay microplate and mixed with 36 μL FASN assay buffer (50 mM potassium phosphate, pH 7.0, 1.0 mM EDTA, 0.01% NP-40) plus 5.0 mM fresh DTT. FASN protein (40 μL 150 nM FASN) was added per well, and the microplate was incubated at 37° C. for 30 min. Enzyme activity measurement was initiated by addition of 20 μL 5× substrate mixture to final concentrations of 60 nM FASN, 2.4 nM-40 μM compound, 0.2 mM NADPH, 50 μM butyryl-CoA, 0.5 mM malonyl-CoA in 100 μL assay buffer plus 5.0 mM DTT and 4.0% DMSO. NADPH consumption was monitored kinetically by fluorescence (λEx=340 nm, λEm=460 nm) on an EnVision 2100 multilabel plate reader (Perkin Elmer, Waltham, Mass.). FASN enzyme activity (slope) in the presence of 4% DMSO was used as maximum control, whereas background (minimum control) was measured by omission of malonyl-CoA in the substrate mixture. Inhibition curves were fitted by a logistic function to yield IC50 values:
Compounds were assayed as inhibitors of human FASN using the above-described FASN Scintillation Proximity Flashplate Assay (IC50; nM) or FASN NADPH Consumption Assay (*) (IC50; nM). The corresponding activity of the isolated compound is also provided along with the measured mass (ES^+).

T1 sequence (P49327 whole entry): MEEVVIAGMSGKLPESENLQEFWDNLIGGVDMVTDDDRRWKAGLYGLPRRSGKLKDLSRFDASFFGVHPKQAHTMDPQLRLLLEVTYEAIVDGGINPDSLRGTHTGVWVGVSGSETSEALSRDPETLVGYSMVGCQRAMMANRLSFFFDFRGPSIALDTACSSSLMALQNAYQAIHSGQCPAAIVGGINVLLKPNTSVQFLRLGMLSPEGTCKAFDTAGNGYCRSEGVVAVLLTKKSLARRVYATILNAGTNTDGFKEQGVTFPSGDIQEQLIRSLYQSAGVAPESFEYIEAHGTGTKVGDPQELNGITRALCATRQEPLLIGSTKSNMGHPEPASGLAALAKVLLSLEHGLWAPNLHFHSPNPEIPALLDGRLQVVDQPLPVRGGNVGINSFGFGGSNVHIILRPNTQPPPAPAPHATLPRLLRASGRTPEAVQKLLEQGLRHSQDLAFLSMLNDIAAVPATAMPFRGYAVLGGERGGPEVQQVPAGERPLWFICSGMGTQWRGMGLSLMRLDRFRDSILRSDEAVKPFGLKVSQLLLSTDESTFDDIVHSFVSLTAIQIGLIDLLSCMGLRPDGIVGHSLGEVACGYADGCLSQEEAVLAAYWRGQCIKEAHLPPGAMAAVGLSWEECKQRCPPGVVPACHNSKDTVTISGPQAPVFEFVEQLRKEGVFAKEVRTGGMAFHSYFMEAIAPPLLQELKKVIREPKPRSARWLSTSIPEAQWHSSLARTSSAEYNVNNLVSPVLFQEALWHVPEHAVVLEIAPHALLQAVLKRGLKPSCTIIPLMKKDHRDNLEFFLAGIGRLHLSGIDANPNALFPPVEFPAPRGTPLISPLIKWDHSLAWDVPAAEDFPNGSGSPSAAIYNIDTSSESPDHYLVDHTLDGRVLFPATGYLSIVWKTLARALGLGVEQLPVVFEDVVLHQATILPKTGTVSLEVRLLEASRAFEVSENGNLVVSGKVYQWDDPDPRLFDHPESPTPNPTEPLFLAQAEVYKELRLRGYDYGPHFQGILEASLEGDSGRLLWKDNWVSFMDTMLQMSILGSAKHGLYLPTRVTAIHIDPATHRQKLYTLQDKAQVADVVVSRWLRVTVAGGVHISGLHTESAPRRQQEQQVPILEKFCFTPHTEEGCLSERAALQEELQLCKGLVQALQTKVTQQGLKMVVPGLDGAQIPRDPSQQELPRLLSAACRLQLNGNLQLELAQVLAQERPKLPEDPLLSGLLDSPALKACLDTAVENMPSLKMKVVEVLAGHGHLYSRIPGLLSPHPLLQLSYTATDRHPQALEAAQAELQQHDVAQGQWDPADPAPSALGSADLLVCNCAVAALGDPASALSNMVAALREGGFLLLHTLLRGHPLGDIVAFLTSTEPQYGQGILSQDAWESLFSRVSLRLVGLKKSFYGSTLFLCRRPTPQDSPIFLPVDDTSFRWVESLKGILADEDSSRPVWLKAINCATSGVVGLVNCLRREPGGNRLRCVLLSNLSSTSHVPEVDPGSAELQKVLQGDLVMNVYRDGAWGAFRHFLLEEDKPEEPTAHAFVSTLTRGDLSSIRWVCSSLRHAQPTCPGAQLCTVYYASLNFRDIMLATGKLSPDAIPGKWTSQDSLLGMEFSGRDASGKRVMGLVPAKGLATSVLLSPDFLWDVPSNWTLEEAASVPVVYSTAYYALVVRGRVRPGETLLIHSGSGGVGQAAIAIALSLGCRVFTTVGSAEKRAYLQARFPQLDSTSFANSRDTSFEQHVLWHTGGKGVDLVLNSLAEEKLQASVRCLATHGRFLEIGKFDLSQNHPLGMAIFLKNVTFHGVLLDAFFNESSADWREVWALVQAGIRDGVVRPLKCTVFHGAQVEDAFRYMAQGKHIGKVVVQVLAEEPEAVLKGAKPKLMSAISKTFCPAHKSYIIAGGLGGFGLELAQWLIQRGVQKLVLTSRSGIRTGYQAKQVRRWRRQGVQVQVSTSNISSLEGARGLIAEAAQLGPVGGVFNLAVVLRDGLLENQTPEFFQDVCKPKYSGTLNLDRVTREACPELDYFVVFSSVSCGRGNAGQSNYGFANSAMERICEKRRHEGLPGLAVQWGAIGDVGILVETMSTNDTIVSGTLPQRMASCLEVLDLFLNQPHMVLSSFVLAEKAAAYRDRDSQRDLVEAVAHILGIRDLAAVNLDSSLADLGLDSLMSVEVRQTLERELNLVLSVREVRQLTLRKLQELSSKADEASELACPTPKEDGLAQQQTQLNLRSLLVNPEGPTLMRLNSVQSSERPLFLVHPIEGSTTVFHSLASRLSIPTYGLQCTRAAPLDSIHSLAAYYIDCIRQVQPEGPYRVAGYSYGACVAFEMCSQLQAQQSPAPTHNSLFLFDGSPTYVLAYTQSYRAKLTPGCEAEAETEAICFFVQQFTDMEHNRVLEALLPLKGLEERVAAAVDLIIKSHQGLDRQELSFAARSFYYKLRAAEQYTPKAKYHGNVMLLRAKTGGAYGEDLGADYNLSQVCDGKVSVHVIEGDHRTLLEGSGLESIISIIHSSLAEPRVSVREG

Compound	IC50 [µM]
CCN(C(=O)n1nnn(-c2c(Cl)cccc2Cl)c1=O)C1CCCN(C(=O)CCC(=O)O)C1 (stereo not shown)	1 to 10
CN(C(=O)n1nnn(-c2c(F)cccc2F)c1=O)c1ccccc1Br	0.06 to 0.25
CCN(CCOC(=O)[C@H](CC(C)C)NC=O)C(=O)n1nnn(-c2c(Cl)cccc2Cl)c1=O	1 to 10
CCN(C(=O)n1nnn(-c2c(Cl)cccc2Cl)c1=O)c1ccccc1F	0.06 to 0.25
CCN(C(=O)n1nnn(-c2cccc(Cl)c2Cl)c1=O)C1CCCCC1	1 to 10
CCN(C(=O)n1nnn(-c2ccc(OC)cc2)c1=O)C1CCCCC1	> 10
CN(C(=O)n1nnn(-c2c(Cl)cccc2Cl)c1=O)c1ccccc1	0.06 to 0.25
CCN(C(=O)n1nnn(-c2ccc(Br)cc2Br)c1=O)C1CCCCC1	1 to 10
CCN(C(=O)n1nnn(-c2cccc(F)c2)c1=O)C1CCCCC1	> 10
CCN(C(=O)n1nnn(-c2c(F)cccc2F)c1=O)c1cccc(F)c1F	< 0.06
CCN(C(=O)n1nnn(-c2c(Cl)cccc2Cl)c1=O)C1CCCCC1	1 to 10
CN(C)N(C(=O)n1nnn(-c2ccccc2Cl)c1=O)C1=CCCCC1	1 to 10
CCNC(=O)N1CCC(N(CC)C(=O)n2nnn(-c3c(Cl)cccc3Cl)c2=O)CC1	1 to 10
COc1ccc(C(=O)O)cc1N(CCCc1ccccc1)C(=O)n1nnn(-c2c(F)cccc2F)c1=O	0.06 to 0.25
C=CCN(C(=O)n1nnn(-c2ccccc2Cl)c1=O)c1ccccc1	0.06 to 0.25
CCN(C(=O)n1nnn(-c2c(F)cccc2OC)c1=O)c1ccc(C(=O)OCc2ccccc2)c(OC)c1	< 0.06
CCN(C(=O)n1nnn(-c2cccc(Cl)c2)c1=O)C1CCCCC1	> 10
CCN(C(=O)n1nnn(-c2ccccc2OC)c1=O)c1ccc(C(=O)O)cc1	0.06 to 0.25
CCN(C(=O)n1nnn(-c2ccccc2Cl)c1=O)c1ccccc1	0.06 to 0.25
Nc1ccc2c(c1)CCCN2C(=O)n1nnn(-c2c(F)cccc2F)c1=O	0.06 to 0.25
CCN(C(=O)n1nnn(-c2cccc3nsnc23)c1=O)C1CCCCC1	1 to 10

Compound	IC50 [µM]
CCN(C(=O)n1nnn(-c2c(Cl)cccc2Cl)c1=O)C1CCN(C)CC1	> 10
CCCCCCCCCCCCN(C)C(=O)n1nnn(-c2ccccc2Cl)c1=O	0.25 to 1
Cc1ccc2c(c1)CCCN2C(=O)n1nnn(-c2c(F)cccc2F)c1=O	0.06 to 0.25
O=C(N(c1ccccc1)c1ccccc1)n1nnn(-c2ccccc2Oc2ccccc2)c1=O	0.06 to 0.25
O=C(N1CCCCc2ccccc21)n1nnn(-c2c(F)cccc2F)c1=O	0.06 to 0.25
CCN(C(=O)n1nnn(-c2c(Cl)cccc2Cl)c1=O)C1CCC(C(=O)O)CC1 (stereo not shown)	1 to 10
CCCCC#Cc1ccc(N(C)C(=O)n2nnn(-c3c(F)cccc3F)c2=O)cc1	0.25 to 1
CCNC(=O)NC1CCCN(C(=O)n2nnn(-c3c(Cl)cccc3Cl)c2=O)C1 (stereo not shown)	> 10
O=CNCC(=O)NCCCN(C(=O)n1nnn(-c2c(Cl)cccc2Cl)c1=O)C1CCCCC1	1 to 10
CC(=O)NCCCN(C(=O)n1nnn(-c2c(Cl)cccc2Cl)c1=O)C1CCCCC1	1 to 10
CCN(C(=O)n1nnn(-c2ccccc2OC)c1=O)c1ccc(OC)c(C(=O)O)c1	0.25 to 1
CCN(C(=O)n1nnn(-c2ccc(Cl)cc2Cl)c1=O)C1CCCCC1	1 to 10
CCN(C(=O)n1nnn(-c2c(F)cccc2C(=O)OC)c1=O)c1ccccc1	0.06 to 0.25
CCN(C(=O)n1nnn(-c2c(C)nn(C)c2C)c1=O)C1CCCCC1	> 10
CCN(C(=O)n1nnn(-c2ccc(F)cc2)c1=O)C1CCCCC1	> 10
CCN(C(=O)n1nnn(-c2c(Cl)cccc2Cl)c1=O)c1ccc(C(=O)OCc2ccc(OC)cc2)c(Cl)c1	0.06 to 0.25
CCN(C(=O)n1nnn(-c2ccccc2OC)c1=O)c1cc(C(=O)O)ccc1OC	0.06 to 0.25
CN(Cc1ccccc1)C(=O)n1nnn(-c2ccccc2Cl)c1=O	1 to 10
CN(C(=O)n1nnn(-c2ccccc2Cl)c1=O)c1ccccc1F	0.06 to 0.25
O=C(N1CCOCC1)n1nnn(-c2ccccc2Cl)c1=O	> 10
C=CCN(C(=O)n1nnn(-c2c(F)cccc2F)c1=O)c1ccccc1	< 0.06

Compound	IC50 [µM]
O=C(N1CCOc2ccccc21)n1nnn(-c2c(F)cccc2F)c1=O	1 to 10
CCN(C(=O)n1nnn(-c2ccccc2OC)c1=O)c1ccc(C(=O)OCc2ccccc2)c(OC)c1	0.06 to 0.25
C/C=C/C/C=C/CCCN(CCC)C(=O)n1nnn(-c2ccccc2Cl)c1=O	0.25 to 1
CS(=O)(=O)NCCCN(C(=O)n1nnn(-c2c(Cl)cccc2Cl)c1=O)C1CCCCC1	1 to 10
O=C(N1CCCC2CCCCC21)n1nnn(-c2c(F)cccc2Br)c1=O (stereo not shown)	0.06 to 0.25
O=C(N1CCCc2ccc(C(F)(F)F)cc21)n1nnn(-c2c(F)cccc2F)c1=O	0.25 to 1
CCN(CC)C(=O)n1nnn(-c2ccccc2Cl)c1=O	1 to 10
CC(C)N(C(=O)n1nnn(-c2ccccc2Cl)c1=O)C(C)C	> 10
CCN(C(=O)n1nnn(-c2c(C)cccc2C)c1=O)C1CCCCC1	> 10
O=C(N(Cc1ccco1)C1CCCCC1)n1nnn(-c2c(Cl)cccc2Cl)c1=O	> 10
CCN(C(=O)n1nnn(-c2ccc([N+](=O)[O-])cc2Cl)c1=O)C1CCCCC1	> 10
CCN(C(=O)n1nnn(-c2c(F)cc(F)cc2Br)c1=O)c1ccccc1	0.06 to 0.25
O=C(N1CCCc2cc(Br)ccc21)n1nnn(-c2c(F)cccc2F)c1=O	0.06 to 0.25
CCN(C(=O)n1nnn(-c2ccccc2C#N)c1=O)C1CCCCC1	1 to 10
COc1ccc(C(=O)O)cc1N(CCCCc1ccccc1)C(=O)n1nnn(-c2ccccc2OC)c1=O	0.25 to 1
CCN(C(=O)n1nnn(-c2ccccc2Cl)c1=O)C(C)(C)C	> 10
CCN(C(=O)n1nnn(-c2ccccc2OC(F)(F)F)c1=O)C1CCCCC1	1 to 10
CC(C)N(C(=O)n1nnn(-c2c(F)cccc2F)c1=O)c1cccc(C(=O)OCc2ccccc2)c1	< 0.06
CCN(C(=O)n1nnn(-c2c(Cl)cccc2Cl)c1=O)C1CCC(C(=O)N2CCN(C)CC2)CC1 (stereo not shown)	> 10
CC1CCc2ccccc2N1C(=O)n1nnn(-c2c(F)cccc2F)c1=O (stereo not shown)	0.06 to 0.25
CN(C)N(C(=O)n1nnn(-c2ccccc2F)c1=O)C1=CCCCC1	0.25 to 1

Compound	IC50 [µM]
CN(C(=O)n1nnn(-c2c(F)cccc2F)c1=O)c1ccccn1	0.25 to 1
O=C(OCc1ccccc1)c1ccc(N(CCc2cccnc2)C(=O)n2nnn(-c3c(Cl)cccc3Cl)c2=O)cc1	0.25 to 1
CCN(C(=O)n1nnn(-c2c(F)cccc2F)c1=O)C1CCCCC1	0.25 to 1
CCCCCCN(C)C(=O)n1nnn(-c2ccccc2Cl)c1=O	1 to 10
CCN(C(=O)n1nnn(-c2ccccc2Oc2ccccc2)c1=O)c1ccccc1F	0.06 to 0.25
Nc1cccc2c1CCCN2C(=O)n1nnn(-c2c(F)cccc2F)c1=O	0.06 to 0.25
CCN(C(=O)n1nnn(-c2cccc(C#N)c2)c1=O)C1CCCCC1	> 10
O=C(N1c2ccccc2Sc2ccccc21)n1nnn(-c2c(F)cccc2F)c1=O	< 0.06
CCN(C(=O)n1nnn(-c2ccccc2)c1=O)c1cc(C(=O)O)ccc1OC	0.06 to 0.25
CCN(C(=O)n1nnn(-c2ccccc2C(C)C)c1=O)C1CCCCC1	1 to 10
CCN(C(=O)n1nnn(-c2c(Cl)cccc2Cl)c1=O)c1ccc(C(=O)OCc2ccc(OC)cc2)cc1Cl	0.06 to 0.25
CCNC(=O)n1nnn(-c2ccccc2)c1=O	> 10
CCN(C(=O)n1nnn(-c2c(F)cccc2F)c1=O)c1ccc(C(=O)O)cc1	< 0.06
CN(C(=O)n1nnn(-c2ccccc2Cl)c1=O)c1cccc(F)c1	0.25 to 1
CCN(C(=O)n1nnn(-c2c(Cl)cccc2Cl)c1=O)c1cccc(NS(=O)(=O)C(F)(F)F)c1	0.06 to 0.25
CCN(C(=O)n1nnn(-c2ccccc2OC)c1=O)c1cc(C(=O)O)ccc1Cl	< 0.06
CCN(C(=O)n1nnn(-c2c(Cl)cccc2Cl)c1=O)C1CCCC(C(=O)O)C1 (stereo not shown)	1 to 10
CCN(C(=O)n1nnn(-c2ccccc2Cl)c1=O)C1CCCCC1	1 to 10
C/C=C/C/C=C/CCCN(C)C(=O)n1nnn(-c2ccccc2Cl)c1=O	1 to 10
